Values joined by “and” are separate entries in the source; they are usually repeats but may differ in a detail not shown here. Equal entries are not always repeated.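 Results reflect a 48-hour exposure of cells in 96-well plates to compound at five concentrations. The concentration for 50% growth inhibition is given as GI50. TGI: concentration producing complete growth inhibition.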
Key:
Assay in all cases: NCI-60 cell line screen, 48 h
[1] = system: ACHN renal
[2] = system: SNB-19 CNS
[3] = system: MOLT-4 leukemia
[4] = system: HCT-116 colon
[5] = system: CCRF-CEM leukemia
[6] = system: OVCAR-8 ovarian

Compound	TGI [1]	GI50 [2]	TGI [2]	GI50 [3]	TGI [3]	TGI [4]	TGI [5]	GI50 [6]	TGI [6]	GI50 [1]	GI50 [4]	GI50 [5]
COc1cc(Nc2nc3ccccc3nc2NS(=O)(=O)c2ccc(NC(=O)c3ccc(C)c(OC)c3)cc2)cc(OC)c1	48.7 µM and 62.8 µM and > 10 µM	3.14 µM and 19.8 µM and 2.3 µM	31 µM and > 100 µM and > 10 µM	4.58 µM and 14.4 µM and 2.25 µM	45.7 µM and 43.3 µM and > 10 µM	> 100 µM	> 100 µM and 71.6 µM and > 10 µM	4.19 µM and 20.5 µM and 2.82 µM	> 100 µM			
O=C1NC(=O)C(c2ccccc2Cl)=C1Nc1cc(Cl)c(O)c(Cl)c1	> 25 µM	> 25 µM	> 25 µM	16 µM	> 25 µM	> 25 µM		17.6 µM	> 25 µM	> 23.7 µM	13.6 µM	
O=c1ccs[nH]1	17.8 µM		> 89.1 µM		25 µM	38.3 µM	17.2 µM		32.9 µM			
C#CC1(OC(C)=O)CCC2C3CC=C4C=C(OC(C)=O)CCC4(C)C3CCC21C (configuration not stated)	70.7 µM		> 100 µM		33.3 µM	44.3 µM	30.5 µM		46.3 µM			
COc1cccc(/C=C/[N+](=O)[O-])c1	6.06 µM	16.5 µM	37 µM	3.06 µM	11.9 µM	3.31 µM	7.32 µM	10.7 µM	25.1 µM	2.49 µM	1.49 µM	2.8 µM
COc1ccc(/C(COc2ccc3c(=O)c(-c4ccccc4)coc3c2)=N\O)cc1	34 µM	14.9 µM	> 86.7 µM	1.08 µM	> 100 µM	44.6 µM	> 100 µM	12.1 µM	64.3 µM	11.3 µM	18.3 µM	3.9 µM
CC1=C(C(=O)Nc2ccc(Cl)c(Cl)c2)C(c2cccc(Cl)c2)NC(=O)N1 (configuration not stated)	20.8 µM	9.52 µM	21 µM	4.99 µM	> 23.3 µM	> 50 µM		14.8 µM	> 37.7 µM	9.07 µM	12 µM	
Cc1ccc2c(-c3ccnc(Nc4ccccc4)n3)c(-c3ccc(F)cc3)nn2n1	> 25 µM	14.4 µM	> 25 µM	13.4 µM	> 25 µM	14.6 µM	> 25 µM	9.79 µM	> 25 µM	1.26 µM	4.48 µM	5.81 µM
Cc1ccc(Cc2cnc(NC(=O)/C=C/c3cccc(C)c3)s2)cc1	4.66 µM	0.224 µM	23.1 µM	0.261 µM	> 100 µM	2.4 µM	> 53.6 µM	0.447 µM	> 44.5 µM	0.278 µM	0.0746 µM	0.0893 µM
CC(=C/C=C/C=C(C)\C=C\C=C(\C)C(=O)O)/C=C/C=C(/C)C(=O)O	> 100 µM				> 100 µM	> 100 µM	> 100 µM		> 100 µM			
COc1cc2ncn(-c3cc(O[C@@H](C)c4ccccc4Cl)c(C(N)=O)s3)c2cc1OC	> 25 µM	2.7 µM	> 25 µM	0.926 µM	> 18.4 µM	> 25 µM	> 10.5 µM	1.45 µM	> 25 µM	2.89 µM	1.01 µM	0.107 µM
O=C1c2ccccc2-c2oc(=O)c3ccccc3c21	> 100 µM		> 100 µM		> 100 µM	> 100 µM	> 100 µM		> 100 µM			
C=C(CN1CCN(c2cccc(C(F)(F)F)n2)CC1)c1ccc(C(=O)Nc2ccccc2N)cc1	> 100 µM	0.65 µM and 0.708 µM	29.3 µM and 23.5 µM	0.855 µM and 0.478 µM	> 100 µM	> 100 µM	> 100 µM	4.25 µM and 1.09 µM	55.4 µM and > 79 µM		0.537 µM and 0.402 µM	0.278 µM
COc1cc2c(cc1OC)-c1ccc3cc4c(cc3c1N(CCCn1ccnc1)C2)OCO4	65.9 µM	0.79 µM	12.7 µM	0.467 µM	> 100 µM	16.2 µM	21.4 µM	5.49 µM	43.6 µM	10.1 µM	2.93 µM	0.62 µM
O=C(O)CCCSc1ccccc1	> 100 µM		> 100 µM		> 100 µM	> 100 µM	> 100 µM		> 100 µM			
C/C(=N\Nc1cc(C)c2ccccc2n1)c1ccccn1	1.14 µM	0.159 µM	13.6 µM	< 0.0381 µM	0.489 µM	1.29 µM	0.571 µM	0.0535 µM	1.35 µM	< 0.0374 µM	< 0.0401 µM	< 0.0269 µM
C=C1C(=O)O[C@H]2[C@H]1CC/C(COC(=O)C(=O)c1cn(C)c3ccc(Cl)cc13)=C\CC[C@@]1(C)O[C@@H]21	2.5 µM	2.16 µM	6.13 µM	0.494 µM	4.17 µM	2.69 µM	10.9 µM	2.1 µM	10.1 µM	1.07 µM	1.24 µM	0.338 µM
CS(=O)(=O)CCNCc1ccc(-c2ccc3ncnc(Nc4ccc(OCc5ccccc5)c(Br)c4)c3c2)o1	> 25 µM	> 20.8 µM	> 25 µM	9.2 µM	> 25 µM	11.8 µM	> 25 µM	9.62 µM	> 25 µM	1.13 µM	5.26 µM	9.89 µM
COc1ccc(-c2cc(-c3ccc(Cl)cc3)nc(SCCCC(=O)NO)n2)cc1	1.88 µM	2.18 µM	> 27.1 µM	0.796 µM	> 22 µM	> 100 µM	> 100 µM	0.427 µM	> 100 µM	0.379 µM	0.563 µM	0.222 µM
C=C(C)[C@@H]1CC[C@]2(C(=O)O)CC[C@]3(C)[C@H](CC[C@@H]4[C@@]5(C)CCC(NC(=O)c6cccc(OC(C)=O)c6OC(C)=O)C(C)(C)[C@@H]5CC[C@]43C)[C@@H]12 (some centres not stated)	2.61 µM	0.832 µM	25.7 µM	0.497 µM	2.85 µM	1.54 µM	18.9 µM	0.996 µM	3.24 µM	0.323 µM	0.376 µM	0.585 µM

Compound	TGI [1]	GI50 [2]	TGI [2]	GI50 [3]	TGI [3]	TGI [4]	TGI [5]	GI50 [6]	TGI [6]	GI50 [1]	GI50 [4]	GI50 [5]
COC(=O)c1cc2c3ccccc3n3c(=O)c4cc5ccccc5nc4c(n1)c23	> 100 µM	> 100 µM	> 100 µM	> 100 µM	> 100 µM	> 100 µM	> 100 µM	> 100 µM	> 100 µM	> 100 µM	> 100 µM	> 100 µM
CCCN(CCC)c1ccc(/C=C/c2ccc3cc(OCC)ccc3n2)cc1	> 100 µM	> 100 µM	> 100 µM	> 100 µM	> 100 µM	> 100 µM	> 100 µM	99.2 µM	> 100 µM	63.4 µM	31.6 µM	54.3 µM
N#Cc1ccc2c(c1)C(=O)c1c-2n(CCCCl)c(=O)c2cc([N+](=O)[O-])ccc12	6.59 µM	3.39 µM	> 100 µM	1.34 µM	5.26 µM	> 100 µM	10.7 µM	20.6 µM	> 100 µM	1.91 µM	1.82 µM	0.589 µM
COc1cc(N2CCC(N3CCN(C)CC3)CC2)ccc1Nc1ncnc(Nc2ccccc2S(=O)(=O)C(C)C)n1	14.8 µM	4.98 µM	> 69.3 µM	5.07 µM	> 64.8 µM	22.7 µM	> 42.7 µM	3.52 µM	21.3 µM	2.38 µM	4.94 µM	5.84 µM
C[C@@H](O)[C@H](NC(=O)N[C@@H](CC(N)=O)c1nc([C@@H](N)CO)no1)C(=O)O	> 100 µM	> 100 µM	> 100 µM	> 100 µM	> 100 µM	> 100 µM	> 100 µM	> 100 µM	> 100 µM	> 100 µM	> 100 µM	> 100 µM
Cc1ccc(NC2=C(Cl)C(=O)N(Cc3ccc(Cl)cc3)C2=O)cc1O		10.8 µM	39 µM	> 100 µM	> 100 µM	29 µM	60 µM	7.1 µM	38.6 µM		6.57 µM	4.64 µM
Cc1cc(-c2nc3sccn3c2/C=N/N=C(N)N)c(C)s1	36.8 µM	16.2 µM	32.8 µM	17.6 µM	60.7 µM	25.3 µM	48 µM	29.4 µM	57 µM	19.1 µM	12.7 µM	16.6 µM
CC(=Nc1ccccc1)C1=C(O)C(Cc2ccc(O)cc2)NC1=O (configuration not stated)	> 100 µM	0.23 µM	> 100 µM	0.371 µM	> 100 µM	1.93 µM	> 100 µM	0.255 µM	> 100 µM	0.0738 µM	0.0503 µM	0.131 µM
C=C1C(=O)O[C@H]2[C@H]1CC/C(COC(=O)c1cc3ccccc3o1)=C\CC[C@@]1(C)O[C@@H]21	2.76 µM	3.16 µM	13.3 µM	1.77 µM	6.06 µM	1.3 µM	4.03 µM	2.43 µM	7.63 µM	1.44 µM	0.32 µM	0.335 µM
COc1ccc(-c2oc(=O)ccc2-c2cc(OC)c(OC)c(OC)c2)cc1O	> 95.2 µM	4.76 µM	> 100 µM	2.01 µM	> 100 µM	> 86.6 µM	18.9 µM	4.34 µM	> 100 µM	5.05 µM	0.736 µM	2.07 µM
Nc1c2c(c(O)c3c1=C(CO)C=N3)=NCCS2	0.844 µM	0.147 µM	0.284 µM	0.223 µM	0.541 µM	0.524 µM	1.9 µM	0.307 µM	0.88 µM	0.269 µM	0.223 µM	0.329 µM
O=C(O)c1ccc(Oc2nccc(-c3c(-c4ccc(F)cc4)ncn3C3CCNCC3)n2)cc1	> 25 µM	> 25 µM	> 25 µM	> 25 µM	> 25 µM	> 25 µM		> 25 µM	> 25 µM	> 25 µM	> 25 µM	
Cc1cc(=O)oc2c(C)c(O)ccc12	> 100 µM		> 100 µM		> 100 µM	> 100 µM	> 100 µM		> 100 µM			
N#CC1=C(N)Oc2c(ccc3ccccc23)C1c1ccccc1 (configuration not stated)	14.8 µM	0.0579 µM	18.1 µM	0.0574 µM	16.8 µM	3.73 µM	41.5 µM	0.0551 µM	16.8 µM	0.0681 µM	0.0443 µM	0.0437 µM
CC(=O)N1C/C(=C/c2ccc(Cl)cc2)C(=O)/C(=C/c2ccc(Cl)cc2)C1	2.05 µM	1.14 µM	2.49 µM	0.249 µM	7.58 µM	0.465 µM	3.03 µM	0.463 µM	2.17 µM	0.769 µM	0.202 µM	0.319 µM
COC(=O)CC[C@]1(C)O[C@H]2[C@H]([C@@H](C)CCCC(C)=O)OC(=O)[C@@H]2C[C@H]1O	> 100 µM	> 100 µM	> 100 µM	> 100 µM	> 100 µM	> 100 µM	> 100 µM	> 100 µM	> 100 µM	> 100 µM	> 100 µM	> 100 µM
O=S(=O)(NCCCNc1nccc(-c2c(-c3ccc(F)c(O)c3)nc3sccn23)n1)c1ccc(F)cc1	8.86 µM	3.33 µM	> 100 µM	1.73 µM	5.57 µM		6.07 µM	2.3 µM	> 100 µM	2.24 µM		1.58 µM
CNC/C(Cl)=N/S(=O)(=O)c1ccc(C)cc1	35.8 µM		68.2 µM			21.1 µM			> 100 µM			
C=C1C(C2(C)C(OC(C)=O)CC(=O)OC(C)(COC(C)=O)C2CC(=O)OC)C(OC=O)C(OC(=O)C(O)C(C)CC)C2(C)C(c3ccoc3)CC(=O)C12O (configuration not stated)	> 52.8 µM		> 100 µM		> 100 µM	> 100 µM			> 100 µM			
O=c1cc(N2CCN(CCCCCOc3cc(O)c4c(=O)cc(-c5ccccc5)oc4c3)CC2)c2ccccc2o1	> 100 µM	> 100 µM	> 100 µM			> 100 µM	> 100 µM	> 100 µM	> 100 µM	> 100 µM	25.4 µM	19.3 µM

From PubChem BioAssay (NCI)
